From patent publication EP2457593A1, “Cyclic RGD peptides of amino acids based on thiazoles or oxazoles as selective antagonists of the alpha-v beta-3 integrin” (Lykera Biomed S.A., priority 2010, dated 2012)

Columns and labels:
HUVEC (αvβ3/αvβ5) = experiment: Cell adhesion inhibition, vitronectin (VN) as ligand, HUVEC; format: cell-based, human; conditions: coating 0.75 µg/ml, read-out: Adhesion inhibition - EC-50
Protocol: (§1) Biological experiments. Cells were grown in DMEM High Glucose (GIBCO, Ref: 31966), supplemented with 10% FCS (GIBCO, 10106-169) at 37°C and 5% CO2. Cells were expanded when they reached 90% confluence. Non-tissue culture treated ELISA plates were coated at 4°C with the appropriate concentration of the ligand (depending on the cell line). The coating solution was discarded and the wells were blocked with blocking solution (1.5% BSA; 60 minutes at 37°C). The blocking solution was discarded by flicking and serial dilutions of the compounds were plated in duplicates. Immediately, harvested cells were plated at a given concentration (20000-25000 /well for HUVEC and DAOY and 50000 for HT-29) to the same plate. Plates were incubated for 60-90 min at 37°C to allow cell adhesion and spreading on the ligands. Plates were washed three times with PBS and 100 µl/well of Hexosaminidase Substrate solution was added. Plates were incubated at 37°C during 3 hours and then stop solution was added. Adsorption was read at OD 405nm.
(§2) Each plate contains positive and negative controls and peptides were tested as duplicates. Each assay has been repeated at least twice and the adhesion inhibition EC50 was calculated, when possible, using the Prism-4 software based on the sigmoidal dose-response (variable slope) equation.
(§3) The different RDG derivates based on thiazole-amino acid structures were tested for their biological activity such as inhibition of cell adhesion using three different cell systems and three integrin ligands for each cell line (vitronectin (VN), fibrinogen (FB) and fibronectin (FN) and collagen (COL)). The cell lines used for the study were: DAOY human […] cells and HUVEC human umbilical vein endothelial cells as primary cell culture, which overexpresses in both members, αvβ3 and αvβ5, of the αv-integrin family, and HT29 human colon adenocarcinoma, which overexpresses in both members, αvβ5 and αvβ6, of the αv-integrin family.
(§4) In the experiments using VN as integrin ligand, both HUVEC and DAOY cells use αvβ3 and αvβ5 to adhere to VN; while HT29 cells use only αvβ5 to adhere to VN. In contrast, in the experiments using FB as integrin ligands, both HUVEC and DAOY cells use αvβ3 to adhere to FB, and the experiments using FN and COL were to control that the compounds could no inhibit the independent cell adhesion.

DAOY (αvβ3 /αvβ5) = experiment: Cell adhesion inhibition, vitronectin (VN) as ligand, DAOY; format: cell-based, human; conditions: coating 0.5 µg/ml, read-out: Adhesion inhibition - EC-50
Protocol: as §1, §2
as §3, with “family. […]” for “family.”

HT-29 (αvβ5) = experiment: Cell adhesion inhibition, vitronectin (VN) as ligand, HT-29; format: cell-based, human; conditions: for EC50: VN ligand, HT-29, coating 4.0 µg/ml, read-out: Adhesion inhibition - EC-50; for blocking activity against αvβ5: HT29-VN cell system
Protocol: as §1, §2, §3, §4

DAOY (αvβ3) = experiment: Cell adhesion inhibition, fibrinogen (FB) as ligand, DAOY; format: cell-based, human; conditions: coating 5.0 µg/ml, read-out: Adhesion inhibition - EC-50
Protocol: as §1, §2
as §3, with “family. […]” for “family.”

HUVEC cell line [1] = experiment: Cell adhesion inhibition, fibronectin (FN) as ligand (αv-integrin independent control), HUVEC; format: cell-based, human
Protocol: (§5) Figure 1. […] A) Using vitronectin (VN) as ligand. B) Using fibrinogen (FB) as ligand. Figure 2. […] Figure 3. […] A) Using fibronectin (FN) as ligand. B) Using collagen (COL) as ligand.
as §1, with “Plates were washed three times with PBS and 100 µl/well of Hexosaminidase Substrate solution was added. Plates were incubated at 37°C during 3 hours and then stop solution was added.” left out
(§6) Each plate contains positive and negative controls and peptides were tested as duplicates. Each assay has been repeated at least twice and the adhesion inhibition EC50 was calculated, when possible, using the Prism-4 software based on the sigmoidal dose-response (variable slope) equation. […]

HUVEC cell line [2] = experiment: Cell adhesion inhibition, collagen (COL) as ligand (αv-integrin independent control), HUVEC; format: cell-based, human
Protocol: as §5
as §1, with “Plates were washed three times with PBS and 100 µl/well of Hexosaminidase Substrate solution was added. Plates were incubated at 37°C during 3 hours and then stop solution was added.” left out
as §6

HUVEC (αvβ3) = HUVEC (αvβ3) (Homo sapiens, UniProt P05106+P06756); experiment: Cell adhesion inhibition, fibrinogen (FB) as ligand, HUVEC; format: cell-based; conditions: from adhesion of the HUVEC and DAOY cells to FB
HUVEC cell line [3] = experiment: Inhibition of cell adhesion, first series of experiments, HUVEC cell line (ligand not specified); format: cell-based, human; conditions: for biological activity (inhibition of cell adhesion), in words: HUVEC cell line, first series of experiments
Protocol: as §1, §2, §3
In the first series of experiments compounds 1-5 were tested using HUVEC cell line showing that only compounds 4 and 5 were active.

HUVEC (αvβ3), sequence (P06756 31-1048): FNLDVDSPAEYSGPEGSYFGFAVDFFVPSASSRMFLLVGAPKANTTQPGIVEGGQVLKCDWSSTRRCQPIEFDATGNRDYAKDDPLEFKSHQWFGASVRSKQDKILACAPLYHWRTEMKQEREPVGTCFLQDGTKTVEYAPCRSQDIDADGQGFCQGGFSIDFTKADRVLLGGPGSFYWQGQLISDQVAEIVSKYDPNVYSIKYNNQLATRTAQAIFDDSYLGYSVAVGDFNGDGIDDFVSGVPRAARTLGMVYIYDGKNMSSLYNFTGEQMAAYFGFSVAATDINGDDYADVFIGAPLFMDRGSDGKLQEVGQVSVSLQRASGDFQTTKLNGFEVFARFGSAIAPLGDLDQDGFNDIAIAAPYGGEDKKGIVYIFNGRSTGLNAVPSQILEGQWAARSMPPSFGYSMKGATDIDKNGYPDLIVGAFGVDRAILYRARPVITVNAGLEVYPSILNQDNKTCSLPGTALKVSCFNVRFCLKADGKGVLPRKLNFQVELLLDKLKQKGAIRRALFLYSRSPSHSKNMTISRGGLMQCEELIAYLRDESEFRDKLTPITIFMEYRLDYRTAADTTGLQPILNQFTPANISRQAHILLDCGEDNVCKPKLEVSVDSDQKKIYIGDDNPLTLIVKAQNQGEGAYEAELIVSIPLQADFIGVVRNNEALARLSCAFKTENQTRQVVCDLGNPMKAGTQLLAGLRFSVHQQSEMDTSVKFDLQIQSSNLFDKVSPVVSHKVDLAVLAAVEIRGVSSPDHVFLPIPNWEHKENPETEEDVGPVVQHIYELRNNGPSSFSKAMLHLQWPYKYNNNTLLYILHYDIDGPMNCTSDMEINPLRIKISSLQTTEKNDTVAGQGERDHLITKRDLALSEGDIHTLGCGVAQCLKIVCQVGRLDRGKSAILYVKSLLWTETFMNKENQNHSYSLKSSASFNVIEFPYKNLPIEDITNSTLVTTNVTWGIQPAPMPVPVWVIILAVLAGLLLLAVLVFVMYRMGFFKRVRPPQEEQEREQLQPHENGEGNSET
HUVEC (αvβ3), sequence (P05106 27-788): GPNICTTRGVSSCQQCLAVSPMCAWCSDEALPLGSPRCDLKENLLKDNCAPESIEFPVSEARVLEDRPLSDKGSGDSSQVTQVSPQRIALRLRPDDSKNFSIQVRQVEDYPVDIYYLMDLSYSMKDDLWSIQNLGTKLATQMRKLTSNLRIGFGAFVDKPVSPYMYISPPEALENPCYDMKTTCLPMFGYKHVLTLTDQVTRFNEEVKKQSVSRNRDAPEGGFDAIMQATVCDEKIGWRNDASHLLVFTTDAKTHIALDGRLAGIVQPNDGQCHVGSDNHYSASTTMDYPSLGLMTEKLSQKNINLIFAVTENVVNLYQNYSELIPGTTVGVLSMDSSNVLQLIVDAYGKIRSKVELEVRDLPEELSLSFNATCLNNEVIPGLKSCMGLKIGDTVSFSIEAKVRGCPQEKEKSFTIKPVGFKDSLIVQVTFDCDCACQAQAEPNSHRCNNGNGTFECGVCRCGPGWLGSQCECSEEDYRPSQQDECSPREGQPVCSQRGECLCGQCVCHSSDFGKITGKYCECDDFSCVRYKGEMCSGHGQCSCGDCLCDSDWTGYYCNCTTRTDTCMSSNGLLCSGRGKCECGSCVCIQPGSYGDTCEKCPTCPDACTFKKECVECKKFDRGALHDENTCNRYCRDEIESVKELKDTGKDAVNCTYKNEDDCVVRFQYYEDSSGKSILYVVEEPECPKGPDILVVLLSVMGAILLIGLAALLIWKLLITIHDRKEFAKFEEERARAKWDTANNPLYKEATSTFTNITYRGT

EC50 (DAOY (αvβ3 /αvβ5))	EC50 (HT-29 (αvβ5))	EC50 (DAOY (αvβ3))	Compound	EC50 (HUVEC (αvβ3/αvβ5))	inhibit cell adhesion to αv-integrin independent cell adhesion (FN coating) (HUVEC cell line [1])	inhibit cell adhesion to αv-integrin independent cell adhesion (COL coating) (HUVEC cell line [2])	blocking activity against αvβ5 (HT-29 (αvβ5))	selectivity for the αvβ3 integrin, in words (HUVEC (αvβ3))	biological activity (inhibition of cell adhesion), in words (HUVEC cell line [3])	activity in all cell systems used in the study, in words (HUVEC cell line [3]; all cell systems used, compound 3 has values for HUVEC only)
0.068 µM	2.24 µM	0.059 µM	CC(C)[C@H]1C(=O)N[C@@H](CCCNC(=N)N)C(=O)NCC(=O)N[C@@H](CC(=O)O)C(=O)N[C@H](Cc2ccccc2)C(=O)N1C [Cilengitide, reference compound]	0.56 µM	none of the compounds, including the reference one (Cilengitide) would inhibit cell adhesion	none of the compounds, including the reference one (Cilengitide) would inhibit cell adhesion				
6.8 µM	59.1 µM	1.86 µM	N=C(N)NCCC[C@@H]1NC(=O)c2csc(n2)-c2csc(n2)-c2csc(n2)CNC(=O)[C@H](CC(=O)O)NC(=O)CNC1=O [Compound 5, Cyclo-[Arg-Gly-Asp-Thz3X-]]	63.8 µM			no blocking activity	selective antagonists of the αvβ3 integrin	active	
			N=C(N)NCCC[C@@H]1NC(=O)c2csc(n2)CNC(=O)[C@H](CC(=O)O)NC(=O)CNC1=O [Compound 3, Cyclo-[Arg-Gly-Asp-Thz1X-]]	31.1 µM						inactive
5.71 µM	53.2 µM	0.082 µM	N=C(N)NCCC[C@@H]1NC(=O)c2csc(n2)-c2csc(n2)CNC(=O)[C@H](CC(=O)O)NC(=O)CNC1=O [Compound 4, Cyclo-[Arg-Gly-Asp-Thz2X-]]	7.46 µM			no blocking activity	selective antagonists of the αvβ3 integrin	active	
